Data on 39 compounds can be found in patent publication US6638953B2, “Indole derivatives as 5-HT receptor antagonist” (SmithKline Beecham p.l.c., priority 1995, dated 2003).

Some results are limits rather than exact numbers.

Turning to `Cc1ncccc1Oc1ccc(NC(=O)N2CCc3cc(Cl)c(Cl)cc32)cn1` [Example 168], the melting point was 225 to 228 °C.
On to `COc1cc2c(cc1C(F)(F)F)N(C(=O)Nc1ccc(Oc3cnccc3C)nc1)CC2` [Example 82, 5-Methoxy-6-trifluoromethyl-1-[6-(4-methylpyridin-3-yloxy)pyridin-3-ylcarbamoyl]indoline], for which the melting point fell in the range of 188 to 191 °C.
Take `COc1cc2c(cc1C(F)(F)F)N(C(=O)Nc1cncc(-c3ccc(Cl)cc3)c1)CC2` [Example 89]: the melting point lay in the range of 198 to 199 °C.
`COc1cc2c(cc1C(F)(F)F)N(C(=O)Nc1cc(F)cc(-c3ccc(C)nc3)c1)CC2` [Example 116] came in with a melting point of 213 to 215 °C.
As for `COc1cc2c(cc1C(F)(F)F)N(C(=O)Nc1ccc(Oc3cccnc3Cl)nc1)CC2` [Example 161], the melting point lay in the range of 238 to 240 °C.
`COc1cc2c(cc1C(F)(F)F)N(C(=O)Nc1ccc(Oc3ccc(C#N)cc3)nc1)CC2` [Example 176] came in with a melting point of 188 to 189 °C.
`COc1cc2c(cc1C(F)(F)F)N(C(=O)Nc1cc(C(C)=O)cc(-c3cccnc3)c1)CC2` [Example 107] gave a melting point of 174 to 176 °C.
The compound `COc1cccc(Oc2ccc(NC(=O)N3CCc4cc(OC)c(C(F)(F)F)cc43)cn2)c1` [Example 158] yielded a melting point of 188 to 189 °C.
On to `COc1cc2c(cc1C(F)(F)F)N(C(=O)Nc1cccc(-c3ccc(N(C)C)cc3)c1)CC2` [Example 97], for which the melting point is 213 to 215 °C.
Compound `COc1cc2c(cc1C(F)(F)F)N(C(=O)Nc1ccc(-c3cccnc3)cn1)CC2` [Example 95] returned a melting point of over 225 °C.
For `COc1cc2c(cc1C(F)(F)F)N(C(=O)Nc1cccc(-c3cncnc3)c1)CC2` [Example 119], the melting point was 245 to 250 °C.
In the case of `CCc1ccccc1Oc1ccc(NC(=O)N2CCc3cc(OC)c(C(F)(F)F)cc32)cn1` [Example 162], the melting point is 215 to 220 °C.
For `COc1cc2c(cc1C(F)(F)F)N(C(=O)Nc1cc(-c3cccnc3)ccc1F)CC2` [Example 9, 1-[2-Fluoro-5-(3-pyridyl) Phenyl Carbamoyl]-5-methoxy-6-trifluoromethyl Indoline] the value was 233 °C (dec.); for `COc1cc2c(cc1C(F)(F)F)N(C(=O)Nc1cncc(-c3c(F)cccc3F)c1)CC2` [Example 22, 1-(5-(2,6-Difluorophenyl)-3-pyridylcarbamoyl)-5-methoxy-6-trifluoromethylindoline], 217 to 219 °C; for `COc1cc2c(cc1C(F)(F)F)N(C(=O)Nc1ccc(Sc3cccnc3)nc1)CC2` [Example 67, 5-Methoxy-6-trifluoromethyl-1-[6-(pyridin-3-ylthio)pyridin-3-ylcarbamoyl]indoline], 208 to 210 °C.
`CSc1cc2c(cc1C(F)(F)F)N(C(=O)Nc1cnc(-c3cccnc3)c(Cl)c1)CC2` [Example 141] returned a melting point of 245 to 250 °C.
Turning to `COc1cc2c(cc1C(F)(F)F)N(C(=O)Nc1cncc(-c3cccs3)c1)CC2` [Example 15, 1-[5-(2-Thienyl)-pyrid-3-yl Carbamoyl]-5-methoxy-6-trifluoromethyl Indoline], the melting point lay in the range of 193 to 208 °C.
For `COc1cc2c(cc1C(F)(F)F)N(C(=O)Nc1ccc(Oc3c(C)ccnc3C)nc1)CC2` [Example 156] the value was 218 to 221 °C; for `COc1cc2c(cc1C(F)(F)F)N(C(=O)Nc1ccc3c(ccn3Cc3ccncc3)c1)CC2` [Example 72, 1-(1-(4-Pyridylmethyl)-5-indolylcarbamoyl)-5-methoxy-6-trifluoromethylindoline], 215 to 218 °C.
Compound `COc1cc2c(cc1C(F)(F)F)N(C(=O)Nc1cccc(-c3ccnc(C)n3)c1)CC2` [Example 113] gave a melting point of over 220 °C.
`CSc1cc2c(cc1C(F)(F)F)N(C(=O)Nc1cccc(C(=O)CCc3ccccn3)c1)CC2` [Example 149]: the melting point is 145 to 146 °C.
`COc1cc2c(cc1C(F)(F)F)N(C(=O)Nc1cccc(-c3cnc(C)cc3C)c1)CC2` [Example 117] gave a melting point of 161 to 162 °C.
Turning to `COc1cc2c(cc1C(F)(F)F)N(C(=O)Nc1cc(-c3cccnc3)cc(C(F)(F)F)c1)CC2` [Example 105], the melting point fell in the range of 220 to 222 °C.
`Cc1cc2c(cc1Cl)N(C(=O)Nc1cc(F)cc(-c3cncnc3)c1)CC2` [Example 132]: the melting point lay in the range of 222 to 226 °C.
Take `COc1cc2c(cc1C(F)(F)F)N(C(=O)Nc1cccc(-c3cncc4ccccc34)c1)CC2` [Example 34, 1-[3-(4-Isoquinolyl)phenylcarbamoyl]-5-methoxy-6-trifluoromethyl Indoline]: the melting point lay within 211 to 215 °C.
Compound `COc1cc2c(cc1C(F)(F)F)N(C(=O)Nc1cc(Br)c(C)c(-c3cccnc3)c1)CC2` [Example 33, 1-[3-Bromo-4-methyl-5-(3-pyridyl)phenylcarbamoyl]-5-methoxy-6-trifluoromethylindoline] showed a melting point of 216 to 218 °C.
With `COc1cc2c(cc1C(F)(F)F)N(C(=O)Nc1cc(-c3cccnc3)cc(-c3cccnc3)c1)CC2` [Example 114], the melting point lay in the range of 155 to 156 °C.
`Cc1cc2c(cc1Cl)N(C(=O)Nc1ccc(F)c(-c3cncnc3)c1)CC2` [Example 171]: the melting point is 211 to 213 °C.
For `CSc1cc2c(cc1C(F)(F)F)N(C(=O)Nc1ccc(Sc3cccnc3)nc1)CC2` [Example 144] the value was 204 to 206 °C; for `COc1cc2c(cc1C(F)(F)F)N(C(=O)Nc1ccc(-c3ccncc3)cc1)CC2` [Example 5, 1-[(4-Pyridyl)-4-phenyl Carbamoyl]-5-methoxy-6-trifluoromethyl Indoline], over 210 °C; for `COc1cc2c(cc1C(F)(F)F)N(C(=O)Nc1cncc(-c3ccc(C)cc3)c1)CC2` [Example 14, 1-[5-(4-Methylphenyl)-pyrid-3-yl Carbamoyl]-5-methoxy-6-trifluoromethyl Indoline], 190 to 191 °C.
Take `COc1cc2c(cc1C(F)(F)F)N(C(=O)Nc1cc(F)c(C)c(N3C=CC=NC3)c1)CC2` [Example 128]: the melting point was 188 to 189 °C.
The compound `COc1cc2c(cc1C(F)(F)F)N(C(=O)Nc1ccc(-n3cccn3)nc1)CC2` [Example 96] displayed a melting point of over 225 °C.
Regarding `COc1cc2c(cc1C(F)(F)F)N(C(=O)Nc1ccc(Oc3ccccc3C)nc1)CC2` [Example 157], the melting point lay in the range of 226 to 228 °C.
For the compound `COc1cc2c(cc1C(F)(F)F)N(C(=O)Nc1cccc(-c3cccnc3)c1OC)CC2` [Example 84], the melting point was in the range of 196 to 197 °C.
In the case of `COc1cc2c(cc1C(F)(F)F)N(C(=O)Nc1cc(F)cc(-c3cnc(C)cc3C)c1)CC2` [Example 127], the melting point lay within 215 to 218 °C.
In turn, `COc1cc2c(cc1C(F)(F)F)N(C(=O)Nc1ccc3c(ccn3Cc3cccnc3)c1)CC2` [Example 71, 1-(1-(3-Pyridylmethyl)-5-indolylcarbamoyl)-5-methoxy-6-trifluoromethylindoline] gave a melting point of 243 to 246 °C.
Turning to `CSc1cc2c(cc1C(F)(F)F)N(C(=O)Nc1ccc(-c3cncc(Cl)c3)nc1)CC2` [Example 142], the melting point was in the range of 193 to 195 °C.
Compound `Cc1cc2c(cc1C(F)(F)F)N(C(=O)Nc1cccc(-c3cccnc3)c1)CC2` [Example 103] registered a melting point of 208 to 210 °C.

For orientation: melting point means the temperature, or range, at which the solid turns liquid.
